Experimental data from US11617733B2, “Bicyclic compound and use thereof for medical purposes” (ONO PHARMACEUTICAL CO., LTD., priority 2009, dated 2023).

Experiments:
[1] = system: male rabbit (NewZealandWhite); assay: Aqueous humor protein concentration in rabbit after ocular instillation; type: in vivo; settings: ocular instillation 30 μL, 0.1% (w/v), 0-8 hours
Protocol: (2-2) Assessment of Ocular Stimulating Property and Aqueous Humor Protein Concentration
To one eye of a male rabbit (NewZealandWhite, 2.0 to 3.0 kg) was ocular-instilled 30 μL of the compound of Example 16 (35), the compound of Example 16 (3) and the compound of Example 16 (25) which had been adjusted to 0.1% (w/v) with a base (containing citrate buffer pH 6.5, 0.5% polysorbate 80, 1% propylene glycol, 0.01% benzalkonium chloride), respectively. Thereafter, an aqueous humor in anterior chamber after 0, 1, 2, 4, 6 and 8 hours from ocular instillation was collected, and a protein concentration in the humor was measured. As a comparative compound, the aforementioned methyl ester of the compound of Example 12 described in Patent Literature 2 (i.e. compound of Example 10 described in Patent Literature 2) (hereinafter, abbreviated as Comparative Compound B in some cases) was used.
Regarding any test compound, a dose until a dissolution limit (150 to 1000 μg/mL) was administered and action of each active body was assessed.

male dog (TOYO Beagle) = assay: Intraocular pressure lowering action in dog after ocular instillation; type: in vivo
Protocol: (2-1) Intraocular Pressure Lowering Action
To one eye of a male dog (TOYO Beagle) which had been sufficiently acclimated in advance was ocular-instilled 30 μL of each test compound (compound of Example 16 (35), compound of Example 16 (3) and compound of Example 16(25)) which had been adjusted with a base (containing citrate buffer pH 6.5, 0.5% polysorbate 80, 1% propylene glycol, 0.01% benzalkonium chloride) to 0.01% (w/v) or 0.001% (w/v), respectively. The other eye was not treated. As a positive control compound, latanoprost which is the known compound was used.
Thereafter, an ocular surface anesthetic (Benoxil eye drops 0.4%, Santen Pharmaceutical Co., Ltd.) was subjected to ocular instillation to locally anesthetize eyes, and an intraocular pressure of each test compound before ocular instillation and after 2, 4, 6, 8, and 24 hours from ocular instillation was measured. An intraocular pressure was measured using a pneumatic applanation flat tonometer (Model 30 Classic, REICHERT). An intraocular pressure lowering rate (%) was calculated by the following equation. Intraocular pressure lowering rate (%)=(intraocular pressure value before ocular instillation−intraocular pressure value at each point)/(intraocular pressure value before ocular instillation)×100 [Mathematic 1]

SMILES	Action on protein concentration in aqueous humor (in words) [1]	Intraocular pressure lowering action compared with positive control latanoprost (in words) (male dog (TOYO Beagle))
CC(C)OC(=O)CCC[C@H]1CC[C@@H]2[C@@H](/C=C/[C@@H](O)COc3cc(F)ccc3F)[C@H](O)C[C@@H]2OC1 [Example 16 (25), 2-Propanyl 4-{(3S, 5aR, 6R, 7R, 8aS)-6-[(1E, 3R)-4-(2,5-difluorophenoxy)-3-hydroxy-1-buten-1-yl]-7-hydroxyoctahydro-2H-cyclopenta[b]oxepin-3-yl}butanoate]	no action of raising a protein concentration in an aqueous humor	stronger intraocular pressure lowering action as compared with latanoprost
CCOC(=O)CCC[C@H]1CC[C@@H]2[C@@H](/C=C/[C@@H](O)COc3ccccc3)[C@H](O)C[C@@H]2OC1 [Example 16 (35), Ethyl 4-{(3S, 5aR, 6R, 7R, 8aS)-7-hydroxy-6-[(1E, 3R)-3-hydroxy-4-phenoxy-1-buten-1-yl]octahydro-2H-cyclopenta[b]oxepin-3-yl}butanoate]	no action of raising a protein concentration in an aqueous humor	stronger intraocular pressure lowering action as compared with latanoprost
